≈ marks a conversion by molar mass, not a printed value. Calls of active or inactive are those of the source. The rule behind the calls is not given here.
Key:
Aspergillus fumigatus [1] = assay: Antifungal activity against Aspergillus fumigatus ATCC 16424 after 48 hrs by broth dilution method; assay type: functional; conditions: ATCC 16424, 48 h
Candida albicans [2] = assay: Antifungal activity against Candida albicans ATCC 10231 after 48 hrs by broth dilution method; assay type: functional; conditions: ATCC 10231, 48 h
Cryptococcus neoformans [3] = assay: Antifungal activity against Cryptococcus neoformans ATCC 36556 after 48 hrs by broth dilution method; assay type: functional; conditions: ATCC 36556, 48 h
Candida albicans [4] = assay: Antifungal activity against Candida albicans ATCC 10231 at 128-0.01 ug/ml spectroscopy analysis; assay type: functional, organism-based
Aspergillus fumigatus [5] = assay: Antifungal activity against Aspergillus fumigatus ATCC 16424 at 128-0.01 ug/ml by spectroscopy analysis; assay type: functional, organism-based
Nakaseomyces glabratus [6] = assay: Antifungal activity against Candida glabrata ATCC 48435 at 128-0.01ug/ml spectroscopy analysis; assay type: functional, organism-based
Cryptococcus neoformans [7] = assay: Antifungal activity against Cryptococcus neoformans ATCC 36556 at128-0.01 ug/ml spectroscopy analysis; assay type: functional, organism-based
Nakaseomyces glabratus [8] = assay: Antifungal activity against Candida glabrata ATCC 48435 after 48 hrs by broth dilution method; assay type: functional; conditions: ATCC 48435, 48 h

SMILES	MIC (Aspergillus fumigatus [1]; read-out: MIC)	MIC (Cryptococcus neoformans [3])	growth inhibition (GI) (Candida albicans [4])	growth inhibition (GI) (Aspergillus fumigatus [5])	also measured
CC(=O)O[C@@H]1C[C@@]2(C)[C@@H](CC[C@@H]3[C@@H]2CC[C@]2(C)[C@@H]([C@H](C)CCCC(C)C)CC[C@@H]32)C[C@H]1OC(=O)CCC(=O)O	2 µg/mL (≈ 3.66 µM)	8 µg/mL (≈ 14.6 µM)			
CC(=O)O[C@]12C[C@@H]3CC[C@@H]4[C@H](CC[C@]5(C)[C@@H]([C@H](C)CCCC(C)C)CC[C@@H]45)[C@@]3(C)C[C@H]1O2					MIC (Aspergillus fumigatus [1]): 8 µg/mL (≈ 18 µM)
CC(=O)O[C@@H]1C[C@@]2(C)[C@@H](CC[C@@H]3[C@@H]2CC[C@]2(C)[C@@H]([C@H](C)CCCC(C)C)CC[C@@H]32)CC1=O			Active		MIC (Aspergillus fumigatus [1]): 128 µg/mL (≈ 288 µM)
CC(C)CCC[C@@H](C)[C@H]1CC[C@H]2[C@@H]3CC[C@H]4C[C@@H](O)CC[C@]4(C)[C@H]3CC[C@]12C			Active	Active	growth inhibition (GI) (Nakaseomyces glabratus [6]): Active; growth inhibition (GI) (Cryptococcus neoformans [7]): Active
CC(=O)O[C@]12C[C@@H]3CC[C@H]4[C@@H]5CCC[C@@]5(C)CC[C@@H]4[C@@]3(C)C[C@H]1O2					MIC (Candida albicans [2]): 4 µg/mL (≈ 12 µM)
CC(C)CCC[C@@H](C)[C@H]1CC[C@H]2[C@@H]3CC[C@H]4C[C@@H](OC(=O)CCC(=O)O)[C@H](OC(=O)CCC(=O)O)C[C@]4(C)[C@H]3CC[C@]12C	8 µg/mL (≈ 13.2 µM)			Active	MIC (Nakaseomyces glabratus [8]): 32 µg/mL (≈ 52.9 µM)
CC(C)CCC[C@@H](C)[C@H]1CC[C@H]2[C@@H]3CC[C@H]4C[C@@H](O)[C@H](O)C[C@]4(C)[C@H]3CC[C@]12C		32 µg/mL (≈ 79.1 µM)			
C[C@@]12CCC[C@H]1[C@@H]1CC[C@H]3C[C@@H](O)CC[C@]3(C)[C@H]1CC2			Active	Active	growth inhibition (GI) (Nakaseomyces glabratus [6]): Active; growth inhibition (GI) (Cryptococcus neoformans [7]): Active

Now from value to compound, other results behind:

MIC (Aspergillus fumigatus [1]; read-out: MIC)	MIC (Cryptococcus neoformans [3])	SMILES	growth inhibition (GI) (Candida albicans [4])	growth inhibition (GI) (Aspergillus fumigatus [5])	also measured
1 µg/mL (≈ 3.01 µM)		CC(=O)O[C@@H]1C[C@@]2(C)[C@@H](CC[C@H]3[C@@H]4CCC[C@@]4(C)CC[C@@H]32)CC1=O			MIC (Candida albicans [2]): 0.125 µg/mL (≈ 0.376 µM)
	4 µg/mL (≈ 8.95 µM)	CC(=O)O[C@@H]1C[C@@]2(C)[C@@H](CC[C@@H]3[C@@H]2CC[C@]2(C)[C@@H]([C@H](C)CCCC(C)C)CC[C@@H]32)C[C@H]1O			
